Laboratory results from publication PMC9769694, “Discovery of Two Inhibitors of the Type IV Pilus Assembly ATPase PilB as Potential Antivirulence Compounds” (Microbiology Spectrum, 2022).
Where “and” joins values, the source holds several entries; their conditions need not be identical. Identical values can stand only once.

Legend:
CtPilB [1] = molecular target: T1, CtPilB (Chloracidobacterium thermophilum, UniProt G2LDI3); assay: Malachite green ATPase assay, dose response (benchtop); type: biochemical; details: IC50, CtPilB ATPase activity, full-length CtPilB, curve fitting, three independent experiments
Protocol: (§1) The full-length CtPilB and the CtPilBΔN variant (with the first 139 residues at the N terminus truncated) were purified as preciously described ([29]). The HTS was conducted using 384-well microplates (Greiner, cat no. 781101). Each microwell for the screen contained a 15-μL reaction mixture consisting of 75 nM CtPilB, 0.5 mM ATP, 20 μM of a library compound, and 2% DMSO in activity buffer (50 mM N-tris(hydroxymethyl)methyl-3-aminopropanesulfonic acid [TAPS], 50 mM Tris, 75 mM KCl, 50 mM sodium acetate, 5 mM MgCl2, 50 mM ZnCl2 [pH 8.7]) ([29]). Reaction mixtures were incubated at 55°C for 10 min and transferred to ice for 5 min to stop the enzymatic reaction. MG reagent (50 μL) was added to each well for color development. After a 15-minute incubation, 5 μL of 34% (wt/vol) sodium-citrate (MP Chemicals) was added and the plate was mixed by shaking ([28], [29]). Absorbance at 620 nm (A620) was measured using a SpectraMax M5 microplate reader at room temperature. The HTS was performed at the Virginia Tech Center for Drug Discovery (VTCDD) Screening Laboratory.
(§2) The effects of inhibitors on the ATPase activity of CtPilB and CtPilBΔN and the binding of MANT-ATP were determined as described previously ([28], [29]). Stock solutions were prepared by dissolving benserazide hydrochloride (Alfa Aesar) or levodopa (Spectrum Chemical Mfg. Corp.) in dimethyl sulfoxide (DMSO; Fisher Biotech). Next, 10× working stocks for given concentrations of an inhibitor were freshly prepared before their use in an experiment. GraphPad Prism v7.04 was used for curve fitting and Student’s t test was used for statistical analysis.

CtPilB [2] = molecular target: T1, CtPilB; assay: MANT-ATP binding to CtPilB (fluorescence); details: for Ki: estimated by Cheng-Prusoff equation from MANT-ATP IC50, assuming competitive inhibition, read-out: Ki (inhibition constant); for IC50: fraction of MANT-ATP bound, fluorescence
Protocol: To probe the mechanisms of inhibition, we examined benserazide and levodopa for their effects on the binding of PilB to the fluorescent ATP analog MANT-ATP ([28]).
FIG 3 Benserazide and levodopa reduce MANT-ATP binding to CtPilB. Fluorescence was used to calculate the fraction of MANT-ATP bound to CtPilB. Experiments were performed in triplicates with samples containing constant concentrations of CtPilB and MANT-ATP with varying concentrations of (A) benserazide or (B) levodopa. The three different sets of colored dots represent averages from three independent experiments with error bars omitted for clarity. Best fits to isotherms with indicated IC50s are shown.
as §2

CtPilBΔN = molecular target: T2, CtPilBΔN (Chloracidobacterium thermophilum, UniProt G2LDI3); assay: ATPase assay of truncated CtPilB variant without N-terminal MshEN domain; type: biochemical; details: read-out: IC50, ATPase activity of PilBΔN
T2 sequence (G2LDI3 140-614): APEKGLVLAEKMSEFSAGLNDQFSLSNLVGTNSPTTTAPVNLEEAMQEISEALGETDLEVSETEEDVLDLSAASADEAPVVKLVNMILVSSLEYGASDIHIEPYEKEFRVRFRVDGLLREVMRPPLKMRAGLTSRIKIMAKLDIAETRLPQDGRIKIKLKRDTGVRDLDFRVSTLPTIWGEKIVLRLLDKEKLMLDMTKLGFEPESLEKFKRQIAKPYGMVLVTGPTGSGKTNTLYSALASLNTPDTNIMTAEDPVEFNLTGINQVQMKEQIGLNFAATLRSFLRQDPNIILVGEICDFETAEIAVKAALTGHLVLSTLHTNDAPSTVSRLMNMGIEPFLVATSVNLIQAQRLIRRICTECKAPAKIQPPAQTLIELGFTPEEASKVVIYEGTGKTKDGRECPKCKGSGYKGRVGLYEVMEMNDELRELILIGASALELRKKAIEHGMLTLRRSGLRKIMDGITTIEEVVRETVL
Excerpt: CtPilB, like its orthologue MshE ([35]), has a MshEN-like cyclic di-GMP-binding domain at its N terminus and a well-conserved ATPase domain at its C terminus ([28], [29]). To determine which domain the inhibitors interact with, we tested the effects of benserazide and levodopa on the ATPase activity of a truncated CtPilB variant (PilBΔN) without the N-terminal MshEN domain ([29]). […] These values are similar to those against the full-length PilB (Fig. 2).
as §1, with “MG reagent (50 μL) was added to each well for color development. After a 15-minute incubation, 5 μL of 34% (wt/vol) sodium-citrate (MP Chemicals) was added and the plate was mixed by shaking ([28], [29]).” left out, “The HTS was performed at the Virginia Tech Center for Drug Discovery (VTCDD) Screening Laboratory.” left out
The effects of inhibitors on the ATPase activity of CtPilB and CtPilBΔN and the binding of MANT-ATP were determined as described previously ([28], [29]). […]

[3] = system: M. xanthus pilin (PilA) production; assay: Pilin production, dot blot of whole cells with anti-PilA antibodies; type: cell-based, Myxococcus xanthus; details: strain YZ603, whole cell dot blot
Protocol: Fig. 6A and B show a representative of the data from three biological experiments, each conducted with 4 technical replicates (R1 to R4).
Piliation levels of the M. xanthus strain YZ603 (ΔdifE) ([52]) were analyzed by dot-blotting with anti-PilA antibodies as previously described ([28]). This study included a fraction representing the “Basal” T4P levels for a given treatment. […] These fractions were used as controls and subtracted as the baseline in data analysis.

M. xanthus = assay: Growth in liquid culture; type: cell-based, Myxococcus xanthus; details: up to 512 μM (highest tested), data not shown
Excerpt: These include many bacteria with alarming prevalence for causing antibiotic-resistant infection ([12]). […] This is important because, for the development of antivirulence chemotherapies, the small molecules should not have an inhibitory effect on bacterial growth. Otherwise, they would select for resistance, just like antibiotics. From a chemical structure perspective, levodopa is 3,4-dihydroxyphenylalanine (Fig. 2), or phenylalanine with two hydroxyl groups. […] These preliminary studies of structure and activity relationships are consistent with benserazide and levodopa being specific inhibitors of PilB. As mentioned earlier, work with trifluoperazine ([25]) and P4MP4 ([26], [27]) has provided the proof of principle for antivirulence therapies with anti-T4P compounds. It is also encouraging that a compound targeting the adhesin function of the type 1 pilus of the uropathogenic E. coli (UPEC) ([47]) has moved to the clinical trial phase in the drug development pipeline ([48]).

T1 sequence (G2LDI3 entry or part of it): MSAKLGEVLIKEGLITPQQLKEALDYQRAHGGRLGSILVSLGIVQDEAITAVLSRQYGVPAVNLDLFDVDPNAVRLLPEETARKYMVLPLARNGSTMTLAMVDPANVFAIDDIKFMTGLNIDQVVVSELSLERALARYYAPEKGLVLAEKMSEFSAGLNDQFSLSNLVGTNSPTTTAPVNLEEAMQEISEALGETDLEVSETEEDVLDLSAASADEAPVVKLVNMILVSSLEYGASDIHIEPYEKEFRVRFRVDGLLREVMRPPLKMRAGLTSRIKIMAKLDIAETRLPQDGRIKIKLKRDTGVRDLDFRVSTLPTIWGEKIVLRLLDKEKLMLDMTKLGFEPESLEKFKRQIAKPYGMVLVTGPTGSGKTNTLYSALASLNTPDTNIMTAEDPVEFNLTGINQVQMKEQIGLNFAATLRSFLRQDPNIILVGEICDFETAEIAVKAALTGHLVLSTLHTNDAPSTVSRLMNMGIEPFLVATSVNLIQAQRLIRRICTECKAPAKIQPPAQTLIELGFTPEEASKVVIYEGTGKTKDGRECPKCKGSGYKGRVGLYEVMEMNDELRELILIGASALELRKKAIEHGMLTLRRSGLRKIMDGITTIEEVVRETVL

| SMILES | IC50 (CtPilB [1]) | Ki (CtPilB [2]) [µM] | IC50 (CtPilB [2]) [µM] | IC50 (CtPilBΔN) [µM] | effect on pilin production level [3] | effect on growth in liquid culture (M. xanthus) |
| --- | --- | --- | --- | --- | --- | --- |
| NC(CO)C(=O)NNCc1ccc(O)c(O)c1O (stereo not drawn) [benserazide] | 2.1 ± 0.4 µM | 2.27 | 33.6 ± 0.5 | 2.2 ± 0.4 | neither compound had any detectable effect | neither benserazide nor levodopa had any discernible effect on the growth |
| N[C@@H](Cc1ccc(O)c(O)c1)C(=O)O [levodopa, 3,4-dihydroxyphenylalanine] | 58 µM and 58.8 µM | 3.4 | 50.5 ± 9.2 | 76.2 ± 9.2 | neither compound had any detectable effect | neither benserazide nor levodopa had any discernible effect on the growth |
